Key:
[1] = biological target: Ribosomal protein S6 kinase alpha-2 (Homo sapiens) (UniProt Q15349); conditions: Compound concentration 1000.0 nM
[2] = biological target: LIM domain kinase 2 (Homo sapiens) (UniProt P53671); conditions: Compound concentration 1000.0 nM
[3] = biological target: Serine/threonine-protein kinase SIK2 (Homo sapiens) (UniProt Q9H0K1); conditions: Compound concentration 1000.0 nM
[4] = biological target: Epidermal growth factor receptor (Homo sapiens) (UniProt P00533); conditions: Compound concentration 1000.0 nM
[5] = biological target: RAC-alpha serine/threonine-protein kinase (Homo sapiens) (UniProt P31749); conditions: Compound concentration 1000.0 nM
[6] = biological target: Serine/threonine-protein kinase 26 (Homo sapiens) (UniProt Q9P289); conditions: Compound concentration 1000.0 nM
[7] = biological target: Serine/threonine-protein kinase Chk2 (Homo sapiens) (UniProt O96017); conditions: Compound concentration 1000.0 nM
[8] = biological target: Serine/threonine-protein kinase WNK3 (Homo sapiens) (UniProt Q9BYP7); conditions: Compound concentration 1000.0 nM
[9] = biological target: 5'-AMP-activated protein kinase catalytic subunit alpha-2 (Homo sapiens) (UniProt P54646); conditions: Compound concentration 1000.0 nM
[10] = biological target: BMP-2-inducible protein kinase (Homo sapiens) (UniProt Q9NSY1); conditions: Compound concentration 1000.0 nM
[11] = biological target: Calcium/calmodulin-dependent protein kinase type II subunit beta (Homo sapiens) (UniProt Q13554); conditions: Compound concentration 1000.0 nM
[12] = biological target: Phosphorylase b kinase gamma catalytic chain, skeletal muscle/heart isoform (Homo sapiens) (UniProt Q16816); conditions: Compound concentration 1000.0 nM
[13] = tested on: Mast/stem cell growth factor receptor Kit (Homo sapiens), P10721 [D816H]; conditions: Compound concentration 1000.0 nM
[14] = biological target: Ephrin type-A receptor 4 (Homo sapiens) (UniProt P54764); conditions: Compound concentration 1000.0 nM
[15] = biological target: Serine/threonine-protein kinase 32A (Homo sapiens) (UniProt Q8WU08); conditions: Compound concentration 1000.0 nM
[16] = biological target: Rhodopsin kinase GRK7 (Homo sapiens) (UniProt Q8WTQ7); conditions: Compound concentration 1000.0 nM
[17] = biological target: Serine/threonine-protein kinase WNK4 (Homo sapiens) (UniProt Q96J92); conditions: Compound concentration 1000.0 nM
[18] = tested on: Proto-oncogene tyrosine-protein kinase receptor Ret (Homo sapiens), P07949 [M918T]; conditions: Compound concentration 1000.0 nM
[19] = biological target: Casein kinase I isoform alpha (Homo sapiens) (UniProt P48729); conditions: Compound concentration 1000.0 nM
[20] = tested on: ALK tyrosine kinase receptor (Homo sapiens), Q9UM73 [C1156Y]; conditions: Compound concentration 1000.0 nM
[21] = biological target: Calcium/calmodulin-dependent protein kinase type II subunit alpha (Homo sapiens) (UniProt Q9UQM7); conditions: Compound concentration 1000.0 nM
[22] = biological target: Serine/threonine-protein kinase MAK (Homo sapiens) (UniProt P20794); conditions: Compound concentration 1000.0 nM
[23] = tested on: Phosphatidylinositol 4,5-bisphosphate 3-kinase catalytic subunit alpha isoform (Homo sapiens), P42336 [M1043I]; conditions: Compound concentration 1000.0 nM
[24] = biological target: Receptor-interacting serine/threonine-protein kinase 1 (Homo sapiens) (UniProt Q13546); conditions: Compound concentration 1000.0 nM
[25] = tested on: Mast/stem cell growth factor receptor Kit (Homo sapiens), P10721 [V559D]; conditions: Compound concentration 1000.0 nM
[26] = biological target: Serine/threonine-protein kinase DCLK3 (Homo sapiens) (UniProt Q9C098); conditions: Compound concentration 1000.0 nM
[27] = biological target: Activin receptor type-2A (Homo sapiens) (UniProt P27037); conditions: Compound concentration 1000.0 nM
[28] = biological target: Mitogen-activated protein kinase 14 (Homo sapiens) (UniProt Q16539); conditions: Compound concentration 1000.0 nM
[29] = biological target: Phosphatidylinositol 3-kinase catalytic subunit type 3 (Homo sapiens) (UniProt Q8NEB9); conditions: Compound concentration 1000.0 nM
[30] = biological target: Activin receptor type-1B (Homo sapiens) (UniProt P36896); conditions: Compound concentration 1000.0 nM
[31] = biological target: Serine/threonine-protein kinase TNNI3K (Homo sapiens) (UniProt Q59H18); conditions: Compound concentration 1000.0 nM
[32] = biological target: 1-phosphatidylinositol 3-phosphate 5-kinase (Homo sapiens) (UniProt Q9Y2I7); conditions: Compound concentration 1000.0 nM
[33] = tested on: Tyrosine-protein kinase ABL1 (Homo sapiens), P00519 [H396P]; conditions: Compound concentration 1000.0 nM
[34] = biological target: Casein kinase I isoform epsilon (Homo sapiens) (UniProt P49674); conditions: Compound concentration 1000.0 nM
[35] = biological target: Mitogen-activated protein kinase kinase kinase 12 (Homo sapiens) (UniProt Q12852); conditions: Compound concentration 1000.0 nM
[36] = biological target: Mitogen-activated protein kinase kinase kinase 20 (Homo sapiens) (UniProt Q9NYL2); conditions: Compound concentration 1000.0 nM
[37] = biological target: Beta-1 adrenergic receptor (Homo sapiens) (UniProt P08588); conditions: Compound concentration 10.0 uM
[38] = biological target: Phosphatidylinositol 4,5-bisphosphate 3-kinase catalytic subunit gamma isoform (Homo sapiens) (UniProt P48736); conditions: Compound concentration 1000.0 nM
[39] = biological target: Cyclin-dependent kinase 5 (Homo sapiens) (UniProt Q00535); conditions: Compound concentration 1000.0 nM
[40] = biological target: NT-3 growth factor receptor (Homo sapiens) (UniProt Q16288); conditions: Compound concentration 1000.0 nM
[41] = biological target: Phosphatidylinositol 4-kinase beta (Homo sapiens) (UniProt Q9UBF8); conditions: Compound concentration 1000.0 nM
[42] = biological target: Serine/threonine-protein kinase 10 (Homo sapiens) (UniProt O94804); conditions: Compound concentration 1000.0 nM
[43] = biological target: Casein kinase I isoform delta (Homo sapiens) (UniProt P48730); conditions: Compound concentration 1000.0 nM
[44] = tested on: Receptor-type tyrosine-protein kinase FLT3 (Homo sapiens), P36888 [D835V]; conditions: Compound concentration 1000.0 nM
[45] = biological target: Mitogen-activated protein kinase kinase kinase 11 (Homo sapiens) (UniProt Q16584); conditions: Compound concentration 1000.0 nM

Sequence of LIM domain kinase 2 (Homo sapiens) (P53671 whole entry, looked up, the tested form may be a part): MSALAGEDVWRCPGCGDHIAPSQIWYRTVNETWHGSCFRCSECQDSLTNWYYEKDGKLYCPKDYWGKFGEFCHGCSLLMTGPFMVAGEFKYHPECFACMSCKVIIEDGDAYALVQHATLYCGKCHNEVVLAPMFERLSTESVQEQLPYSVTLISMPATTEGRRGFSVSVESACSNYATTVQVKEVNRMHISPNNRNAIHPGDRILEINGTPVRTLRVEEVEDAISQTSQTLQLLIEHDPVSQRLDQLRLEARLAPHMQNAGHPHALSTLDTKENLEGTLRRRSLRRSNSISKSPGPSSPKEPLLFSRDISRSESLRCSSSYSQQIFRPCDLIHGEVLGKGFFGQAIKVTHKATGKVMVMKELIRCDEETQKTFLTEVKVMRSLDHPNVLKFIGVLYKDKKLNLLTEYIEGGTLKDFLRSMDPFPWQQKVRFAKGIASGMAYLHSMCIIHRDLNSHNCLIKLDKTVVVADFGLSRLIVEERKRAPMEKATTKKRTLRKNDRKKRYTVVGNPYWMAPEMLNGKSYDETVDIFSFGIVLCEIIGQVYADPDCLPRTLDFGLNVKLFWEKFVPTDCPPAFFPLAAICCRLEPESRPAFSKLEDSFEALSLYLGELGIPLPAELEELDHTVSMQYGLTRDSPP
Sequence of Serine/threonine-protein kinase SIK2 (Homo sapiens) (Q9H0K1 whole entry, looked up): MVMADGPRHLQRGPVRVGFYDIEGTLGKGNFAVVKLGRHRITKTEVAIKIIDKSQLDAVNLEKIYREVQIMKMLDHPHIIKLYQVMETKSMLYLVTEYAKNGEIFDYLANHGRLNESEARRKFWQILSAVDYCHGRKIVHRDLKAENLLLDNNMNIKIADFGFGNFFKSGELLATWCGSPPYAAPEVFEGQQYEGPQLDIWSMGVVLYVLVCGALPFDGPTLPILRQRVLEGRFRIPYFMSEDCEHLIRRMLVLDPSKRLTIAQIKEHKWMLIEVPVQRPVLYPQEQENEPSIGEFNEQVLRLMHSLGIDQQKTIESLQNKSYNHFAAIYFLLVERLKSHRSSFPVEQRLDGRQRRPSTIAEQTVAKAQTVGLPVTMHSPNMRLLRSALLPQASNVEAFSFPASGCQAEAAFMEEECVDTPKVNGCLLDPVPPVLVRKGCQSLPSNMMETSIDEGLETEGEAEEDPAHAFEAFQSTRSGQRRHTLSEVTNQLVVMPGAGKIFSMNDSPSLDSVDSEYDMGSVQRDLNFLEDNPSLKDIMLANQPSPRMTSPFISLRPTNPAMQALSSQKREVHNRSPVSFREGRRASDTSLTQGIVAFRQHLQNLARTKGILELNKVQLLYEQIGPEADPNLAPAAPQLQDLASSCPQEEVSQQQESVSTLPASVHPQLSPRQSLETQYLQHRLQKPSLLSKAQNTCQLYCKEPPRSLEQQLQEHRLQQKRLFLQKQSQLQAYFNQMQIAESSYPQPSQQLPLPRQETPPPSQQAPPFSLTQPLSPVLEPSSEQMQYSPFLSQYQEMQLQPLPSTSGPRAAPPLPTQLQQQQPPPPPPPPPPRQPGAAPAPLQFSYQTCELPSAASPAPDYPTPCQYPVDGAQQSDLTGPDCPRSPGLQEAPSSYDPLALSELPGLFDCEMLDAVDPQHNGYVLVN
Sequence of RAC-alpha serine/threonine-protein kinase (Homo sapiens) (P31749 whole entry): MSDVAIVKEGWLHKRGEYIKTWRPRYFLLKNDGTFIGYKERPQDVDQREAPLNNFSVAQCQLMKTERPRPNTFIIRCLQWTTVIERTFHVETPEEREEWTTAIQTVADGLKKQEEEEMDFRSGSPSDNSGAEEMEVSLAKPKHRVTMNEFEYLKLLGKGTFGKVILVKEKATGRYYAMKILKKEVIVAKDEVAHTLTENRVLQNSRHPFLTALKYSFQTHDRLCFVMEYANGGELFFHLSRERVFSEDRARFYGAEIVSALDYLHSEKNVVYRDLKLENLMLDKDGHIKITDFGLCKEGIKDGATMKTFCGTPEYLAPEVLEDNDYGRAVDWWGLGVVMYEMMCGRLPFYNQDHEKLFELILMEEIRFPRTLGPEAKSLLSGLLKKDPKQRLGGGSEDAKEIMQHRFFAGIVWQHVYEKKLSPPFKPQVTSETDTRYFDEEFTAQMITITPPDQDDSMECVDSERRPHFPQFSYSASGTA
Sequence of Ephrin type-A receptor 4 (Homo sapiens) (P54764 whole entry): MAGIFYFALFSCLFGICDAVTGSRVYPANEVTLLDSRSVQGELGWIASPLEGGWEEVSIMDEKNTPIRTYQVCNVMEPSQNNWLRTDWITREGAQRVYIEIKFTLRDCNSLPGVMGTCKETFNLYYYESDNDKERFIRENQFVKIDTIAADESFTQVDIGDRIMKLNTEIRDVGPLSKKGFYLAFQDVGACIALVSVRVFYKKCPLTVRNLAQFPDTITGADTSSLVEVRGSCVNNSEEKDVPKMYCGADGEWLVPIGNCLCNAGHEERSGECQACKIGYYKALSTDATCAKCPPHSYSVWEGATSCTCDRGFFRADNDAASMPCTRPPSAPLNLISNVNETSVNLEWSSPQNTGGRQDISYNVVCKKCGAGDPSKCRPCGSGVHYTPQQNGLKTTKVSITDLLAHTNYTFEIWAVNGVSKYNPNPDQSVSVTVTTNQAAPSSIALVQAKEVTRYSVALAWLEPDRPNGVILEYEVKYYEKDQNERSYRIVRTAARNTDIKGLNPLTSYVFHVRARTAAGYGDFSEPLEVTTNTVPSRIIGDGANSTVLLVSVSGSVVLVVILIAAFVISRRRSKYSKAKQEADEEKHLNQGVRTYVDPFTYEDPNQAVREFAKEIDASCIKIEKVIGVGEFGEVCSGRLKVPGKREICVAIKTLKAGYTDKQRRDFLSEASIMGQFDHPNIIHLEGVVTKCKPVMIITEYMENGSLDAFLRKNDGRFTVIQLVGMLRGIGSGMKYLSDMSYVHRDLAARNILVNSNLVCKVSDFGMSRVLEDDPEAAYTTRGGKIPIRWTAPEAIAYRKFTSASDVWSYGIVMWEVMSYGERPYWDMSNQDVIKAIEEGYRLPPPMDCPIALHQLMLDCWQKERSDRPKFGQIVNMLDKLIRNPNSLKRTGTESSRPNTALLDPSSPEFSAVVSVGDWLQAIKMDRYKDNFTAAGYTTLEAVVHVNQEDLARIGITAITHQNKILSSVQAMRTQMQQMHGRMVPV
Sequence of Serine/threonine-protein kinase DCLK3 (Homo sapiens) (Q9C098 whole entry): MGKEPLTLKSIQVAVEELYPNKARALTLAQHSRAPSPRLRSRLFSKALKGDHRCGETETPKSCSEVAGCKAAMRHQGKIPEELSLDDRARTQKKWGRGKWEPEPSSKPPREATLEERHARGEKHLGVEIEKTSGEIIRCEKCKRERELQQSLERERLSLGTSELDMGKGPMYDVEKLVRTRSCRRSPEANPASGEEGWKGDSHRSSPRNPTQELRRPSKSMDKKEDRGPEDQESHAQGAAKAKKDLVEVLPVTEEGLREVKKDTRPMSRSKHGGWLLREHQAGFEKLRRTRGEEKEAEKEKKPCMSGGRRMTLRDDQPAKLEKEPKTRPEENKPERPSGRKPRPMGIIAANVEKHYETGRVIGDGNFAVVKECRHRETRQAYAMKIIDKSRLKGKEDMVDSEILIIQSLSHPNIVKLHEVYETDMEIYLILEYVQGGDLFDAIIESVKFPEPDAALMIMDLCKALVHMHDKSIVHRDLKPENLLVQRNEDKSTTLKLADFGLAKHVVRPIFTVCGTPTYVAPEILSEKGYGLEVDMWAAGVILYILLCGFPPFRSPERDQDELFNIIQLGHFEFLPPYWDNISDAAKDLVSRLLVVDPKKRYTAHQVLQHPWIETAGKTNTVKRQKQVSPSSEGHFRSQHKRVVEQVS
Sequence of Proto-oncogene tyrosine-protein kinase receptor Ret (Homo sapiens), P07949 [M918T] (P07949 whole entry M918T, canonical isoform): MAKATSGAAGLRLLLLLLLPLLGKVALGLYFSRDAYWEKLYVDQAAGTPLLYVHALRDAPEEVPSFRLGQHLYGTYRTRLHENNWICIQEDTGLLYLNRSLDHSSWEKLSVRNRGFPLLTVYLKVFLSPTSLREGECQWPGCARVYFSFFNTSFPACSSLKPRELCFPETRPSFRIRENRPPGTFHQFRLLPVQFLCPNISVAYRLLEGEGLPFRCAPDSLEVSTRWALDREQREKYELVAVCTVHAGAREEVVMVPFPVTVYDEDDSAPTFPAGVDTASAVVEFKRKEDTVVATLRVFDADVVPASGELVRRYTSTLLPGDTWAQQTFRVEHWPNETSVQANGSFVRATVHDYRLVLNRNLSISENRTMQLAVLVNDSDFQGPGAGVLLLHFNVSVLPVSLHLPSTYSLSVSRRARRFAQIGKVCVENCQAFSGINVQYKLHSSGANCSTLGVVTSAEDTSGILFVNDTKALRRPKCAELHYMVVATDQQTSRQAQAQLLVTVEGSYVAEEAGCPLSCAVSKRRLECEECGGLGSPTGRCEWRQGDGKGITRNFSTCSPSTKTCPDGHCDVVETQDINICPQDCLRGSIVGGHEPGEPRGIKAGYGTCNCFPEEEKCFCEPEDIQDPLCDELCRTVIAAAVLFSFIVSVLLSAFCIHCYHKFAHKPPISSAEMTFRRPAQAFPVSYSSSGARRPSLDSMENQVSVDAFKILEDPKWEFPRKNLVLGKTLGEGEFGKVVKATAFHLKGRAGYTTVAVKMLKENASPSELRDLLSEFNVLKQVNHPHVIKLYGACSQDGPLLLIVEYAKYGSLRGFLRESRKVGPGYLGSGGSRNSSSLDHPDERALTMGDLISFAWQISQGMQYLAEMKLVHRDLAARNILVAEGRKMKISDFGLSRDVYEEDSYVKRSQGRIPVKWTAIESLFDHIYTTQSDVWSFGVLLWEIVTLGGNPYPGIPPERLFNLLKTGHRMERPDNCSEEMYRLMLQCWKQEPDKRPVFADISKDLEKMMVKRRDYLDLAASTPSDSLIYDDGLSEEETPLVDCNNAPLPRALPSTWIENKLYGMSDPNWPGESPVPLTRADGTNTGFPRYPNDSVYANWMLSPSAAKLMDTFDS

N#CC1(c2ccccn2)CCN(Cc2cc(C(=O)N3CCCC3)c(=O)n3ccccc23)CC1
inactive: residual activity [1] 88% | residual activity [2] 82% | residual activity [3] 100% | residual activity [4] 100% | residual activity [5] 91% | residual activity [6] 100% | residual activity [7] 92% | residual activity [8] 94% | residual activity [9] 100% | residual activity [10] 92% | residual activity [11] 89% | residual activity [12] 100% | residual activity [13] 100% | residual activity [14] 89% | residual activity [15] 98% | residual activity [16] 87% | residual activity [17] 81% | residual activity [18] 88% | residual activity [19] 79% | residual activity [20] 100% | residual activity [21] 84% | residual activity [22] 93% | residual activity [23] 72% | residual activity [24] 100% | residual activity [25] 100% | residual activity [26] 100% | residual activity [27] 78% | residual activity [28] 86% | residual activity [29] 89% | residual activity [30] 69% | residual activity [31] 89% | residual activity [32] 76% | residual activity [33] 77% | residual activity [34] 100% | residual activity [35] 100% | residual activity [36] 95% | inhibition [37] -5.76% | residual activity [38] 75% | residual activity [39] 92% | residual activity [40] 100% | residual activity [41] 100% | residual activity [42] 95% | residual activity [43] 74% | residual activity [44] 98% | residual activity [45] 89%

N#CC1(c2ccccn2)CCN(Cc2cc(C(=O)O)c(=O)n3ccccc23)CC1 [MSD-M1PAM]
inactive: residual activity [1] 100% | residual activity [2] 100% | residual activity [3] 100% | residual activity [4] 83% | residual activity [5] 100% | residual activity [6] 100% | residual activity [7] 87% | residual activity [8] 99% | residual activity [9] 100% | residual activity [10] 95% | residual activity [11] 100% | residual activity [12] 100% | residual activity [13] 85% | residual activity [14] 79% | residual activity [15] 90% | residual activity [16] 77% | residual activity [17] 75% | residual activity [18] 100% | residual activity [19] 100% | residual activity [20] 100% | residual activity [21] 83% | residual activity [22] 97% | residual activity [23] 91% | residual activity [24] 100% | residual activity [25] 100% | residual activity [26] 89% | residual activity [27] 95% | residual activity [28] 100% | residual activity [29] 70% | residual activity [30] 94% | residual activity [31] 100% | residual activity [32] 97% | residual activity [33] 80% | residual activity [34] 100% | residual activity [35] 93% | residual activity [36] 100% | inhibition [37] 16.2% | residual activity [38] 91% | residual activity [39] 100% | residual activity [40] 70% | residual activity [41] 74% | residual activity [42] 100% | residual activity [43] 96% | residual activity [44] 100% | residual activity [45] 100%

Source: ChEMBL document CHEMBL4507295 (2021)
